Reference: patent US20130065931A1, “METHODS FOR REDUCING WIREWORM DAMAGE TO CROPS” (priority 2011, published 2013)

System: wireworm
Assay: Efficacy of chemical treatments on wireworm in potatoes grown in Washington State
Type: in vivo
Conditions: result in words; values only in the figure
Text: Experimental procedure for determining the efficacy of various chemical treatments on wire-worm in potatoes grown in Washington State, United States. Potato seed Solarium tuberosum L., ‘Russet Burbank’ was used in this experiment. Seeds were planted at a depth of 8 inches with spacing within the row at 10 inches and between rows at 34 inches. The experimental site was a 12 ft. by 20 ft. plot containing four experimental replications. [table] [table] [table]

CCOC(=O)OC1=C(c2cc(C)ccc2C)C(=O)N[C@]12CC[C@@H](OC)CC2 [spirotetramat]
percent reduction in wireworm infestation of potatoes (FIG. 3): confirm the efficacy
